Results on 7 molecules are retold here after paper PMC13625682, “Inhibitor fluorination pattern modulates protein surface dynamics and chemically induced dimerization” (Chemical Science, 2026).

Where two headings read alike, the source gives them in different places.

In assay [1] the test system is T1, Tpx.
T1 construct: with residue G1 and end with N144; GAMG (TEV-cleavage scar that replaces Met1); Trx-His6 (thioredoxin fusion with His6 tag) (N, cleaved yes); made in house; host or cells: E. coli BL21-Gold(DE3)
Put plainly: In vitro Tpx activity assay: reconstituted peroxide clearance cascade, NADPH consumption followed photometrically. The class given is biochemical, Trypanosoma brucei. The following applies: for second-order rate constant k2nd of irreversible Tpx inhibition: 5 µM Tpx, 25 °C, slope of kobs vs inhibitor concentration; for speed of Tpx inactivation: Tpx-equimolar concentrations (5 µM).

A further assay relates to HEK293 cells. Put plainly: HEK293 cell survival assay (resazurin). The following applies: Homo sapiens; HEK293, 24 h incubation. The class given is cell-based. How it is done:
Trypanosome and HEK293 Cell Survival Assays […]
(§1) 1-5 in human embryonic kidney (HEK293) was determined with a resazurin assay, which is based on the reduction of resazurin to fluorescent resorufin by living cells.6 HEK293 cells were maintained in DMEM high glucose supplemented with 10% FBS, 1% penicillin/streptomycin and 1% L-glutamine at 37 °C and 5% CO2. For the toxicity screen, 40000 cells per well were seeded in a 48 well plate (400 µL medium/well) and incubated at 37 °C for 24 hours before treatment with inhibitors 1-5. Cells were treated with 0.1 µM, 0.3 µM, 0.7 µM, 1 µM, 3 µM, 7 µM, 10 µM, 30 µM, 70 µM and 100 µM of the respective inhibitor, DMSO treatment served as negative control. The overall DMSO concentration was kept at 1 vol.% DMSO per well. After 24 hours of treatment, the medium was exchanged with a medium/resazurin mixture (0.015 mg/mL resazurin per well) and the cells were incubated for 3 h at 37 °C before transferring 100 µl medium from each well into a black opaque-walled 96-well plate. Fluorescence was directly measured using a CLARIOstar Plus reader (BMG Labtech GmbH, Ortenberg, Germany) with a 545-20 nm excitation / 600-40 nm emission filter. Each experiment was done in biological quadruplets and cell viability was analyzed in comparison to the DMSO control by plotting relative fluorescence units (RFU) against inhibitor concentration (Prism, Graphpad). A fifty percent decrease in relative fluorescence indicated the compound concentration where half of the HEK293 cells had died, which […]
(§2) In Vitro Tpx Activity Assay and Inactivation Kinetics
(§3) To reconstitute the peroxide clearance cascade (PCC), its components (at final concentrations of 360 µM NADPH, 0.1 U/mL TR, 110 µM TS2, 5 µM Tpx, 180 nM Px, 100 µM H2O2) were mixed in a total volume of 200 µL in a 10 mm quartz cuvette. First, 15 µL NADPH (4.8 mM in TR buffer (40 mM HEPES pH 7.5, 1 mM Na-EDTA), 10 µL TR (2 U/mL in TR buffer), 10 µL TS2 (2.2 mM in sterile filtered, deionized

Assay [2] concerns T. brucei brucei 449 Lister 427 parasites. Put plainly: Trypanosome cell survival assay (ATPlite luminescence). The format is cell-based, Trypanosoma brucei brucei. The following applies: for Selectivity index (24 h), EC50 HEK293 cells divided by EC50 T. brucei: HEK293 vs T. brucei brucei 449, 24 h; for EC50: Trypanosoma brucei. The procedure: Trypanosome and HEK293 Cell Survival Assays
Half maximal effective concentration (EC50) values of compounds 1- 5 against T. brucei brucei 449 Lister 427 parasites were determined with an ATPlite Luminescence assay as described previously.4,5 The EC50 was defined as the compound concentration at which a fifty percent decrease in relative […]
as §1, §2, §3

Assay [3] deals with T1, Tpx. Kind of assay: SEC-MALS of Tpx/inhibitor complexes. The format is binding, Trypanosoma brucei. The following applies: for SEC-MALS Mw of Tpx/inhibitor complex: 100 µM analyte, value ± measurement error. How it is done: Size Exclusion Chromatography Coupled To Multi-Angle Light Scattering (SEC-MALS) To determine the oligomeric state of Tpx/inhibitor complexes by SEC-MALS, 100 µM of purified Tpx/inhibitor complexes were applied to a SEC column (Superdex75 10/300, GE Healthcare) in Tpx buffer (25 mM NaPi pH 7.5, 150 mM NaCl) at a flow rate of 0.5 ml/min at room temperature. The molecular weights of the eluting proteins were measured using a Dawn Heleos 8+ light scattering detector and an Optilab T-rEX refractive index detector (Wyatt Technologies). Data were analyzed with […]

Another assay deals with T2, Tpx WT (Trypanosoma brucei brucei, UniProt O77404).
T2 construct: with residue G1 and end with N144; GAMG (TEV-cleavage scar that replaces Met1); Trx-His6 (thioredoxin fusion with His6 tag) (N, cleaved yes); made in house; host or cells: E. coli BL21-Gold(DE3)
T2 sequence (O77404 with tags, fused parts or gaps limits assumed): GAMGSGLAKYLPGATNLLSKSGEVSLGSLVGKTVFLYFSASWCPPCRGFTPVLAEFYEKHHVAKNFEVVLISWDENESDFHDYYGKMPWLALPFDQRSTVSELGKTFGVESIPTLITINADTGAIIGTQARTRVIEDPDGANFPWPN
Put plainly: Dilution ITC of covalent Tpx/inhibitor complexes (dimer dissociation). The format is binding. The following applies: according to dimer KD. How it is done:
Isothermal Titration Calorimetry (ITC)
Dissociation coefficients (K D) of dimeric Tpx/inhibitor complexes were determined via dilution ITC following our previously established protocol. 4 Purified complexes in Tpx buffer were titrated to Tpx buffer, and the heat signals of each injection was recorded. To observe dimer dissociation, measurements were conducted with 78 µM (Tpx/para-CFT), 122 µM (Tpx/meta-CFT), 277 µM (Tpx/ortho-CFT), 821 µM (Tpx/CtFT), and 176 µM (Tpx/CPT). A MicroCal PEAQ-ITC Automated […]
1, 3 and 5. After the initial wait time of 2 min, 19 serial injections of 2 μL with a spacing of 3 min where performed. The reference power was set to 11 μcal sec-1 and stirring speed to 750 rpm. A MicroCal PEAQ-ITC (Malvern Panalytical) with the same experimental setup was used to determine the KD value of covalent Tpx WT complexes with meta-CFT (2, 10 injections), and CtFT (4, 20 injections). Each titration was performed in a technical triplicate, and controls included water to water and unmodified Tpx to buffer titrations. Transferability between instruments was checked by repeating the Tpx/para -CFT […]
titration. […]

A further assay concerns the target T3, Tryparedoxin (Trypanosoma brucei, UniProt O77404).
T3 chain: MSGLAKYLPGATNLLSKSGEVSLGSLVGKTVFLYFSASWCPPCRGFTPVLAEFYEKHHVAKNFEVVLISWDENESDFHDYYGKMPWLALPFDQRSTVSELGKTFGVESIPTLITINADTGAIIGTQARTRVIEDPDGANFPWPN
Kind of assay: dilution ITC.

The mark [4] stands for this setting: bloodstream form T. brucei brucei 449, 24 h incubation, read-out: EC50 (24 h).
Setting [5] is: bloodstream form T. brucei brucei 449, 48 h incubation, read-out: EC50 (48 h).

`O=c1[nH]c(CCl)nc2scc(-c3ccc(C(F)(F)F)cc3)c12` [CtFT, 2-(chloromethyl)-5-(4-(trifluoromethyl)phenyl)thieno[2,3-d]pyrimidin-4(3H)-one]: the “second-order rate constant k2nd of irreversible Tpx inhibition” value with Tpx [1] amounted to 1870 ± 17 M⁻¹ s⁻¹. Moreover, in the assay with Tpx [1], the “speed of Tpx inactivation” value is “fastest”. Besides, the EC50 in the assay with HEK293 cells is 3900 ± 300 nM; in assay [2] (setting [4]) it was 2200 ± 600 nM; in assay [2] (setting [5]) it was 2500 ± 600 nM. Moreover, the “Selectivity index (24 h), EC50 HEK293 cells divided by EC50 T. brucei” value in assay [2] is on record as 1.8 ± 0.5. The “oligomeric state of inhibitor-bound Tpx by SEC-MALS” value with Tpx [3] (100 µM analyte concentration) is “remained monomeric”. Moreover, in the assay on Tpx [3], the “SEC-MALS Mw of Tpx/inhibitor complex” value is 16.6 ± 0.7 kDa.
For the molecule `O=c1[nH]c(CCl)nc2scc(-c3cccc(F)c3)c12` [meta-CFT, 2-(chloromethyl)-5-(3-fluorophenyl)thieno[2,3-d]pyrimidin-4(3H)-one], in the assay with Tpx [1], the “second-order rate constant k2nd of irreversible Tpx inhibition” value stood at 933 ± 17 M⁻¹ s⁻¹. For the same molecule, in the assay with Tpx [1], the “speed of Tpx inactivation” value is recorded as “slowest”. Also, the figures for the EC50 (in the assay with HEK293 cells; in assay [2] (setting [4]); in assay [2] (setting [5])) were 6500 ± 500 nM, 1300 ± 400 nM and 1100 ± 500 nM, respectively. The “Selectivity index (24 h), EC50 HEK293 cells divided by EC50 T. brucei” value in assay [2] stood at 5.0 ± 1.6. Besides, the “SEC-MALS Mw of Tpx/inhibitor complex” value in the assay with Tpx [3] stood at 23.6 ± 0.9 kDa.
As for `O=c1[nH]c(CCl)nc2scc(-c3ccccc3)c12` [CPT, 2-(chloromethyl)-5-phenylthieno[2,3-d]pyrimidin-4(3H)-one], the 50% effective concentration (EC50) with HEK293 cells was 4900 ± 600 nM; in assay [2] (setting [4]), 600 ± 300 nM; in assay [2] (setting [5]), 1400 ± 400 nM. Besides, the “Selectivity index (24 h), EC50 HEK293 cells divided by EC50 T. brucei” value in assay [2] worked out at 8.2 ± 4.2. Moreover, the “SEC-MALS Mw of Tpx/inhibitor complex” value in the assay with Tpx [3] is reported as 19.5 ± 0.6 kDa.
As to `O=c1[nH]c(CCl)nc2scc(-c3ccc(F)cc3)c12` [para-CFT, 2-(chloromethyl)-5-(4-fluorophenyl)-thieno[2,3-d]pyrimidin-4(3H)-one], the “portion of Tpx WT/inhibitor complex dimeric” value on Tpx WT (100 µM analyte) stood at 85%. Further, the EC50 in the assay with HEK293 cells turned out to be 3900 ± 400 nM; in assay [2] (setting [4]), 1300 ± 300 nM; in assay [2] (setting [5]), 1500 ± 300 nM. In addition, the “Selectivity index (24 h), EC50 HEK293 cells divided by EC50 T. brucei” value in assay [2] was determined as 3.0 ± 0.8. Also, the “SEC-MALS Mw of Tpx/inhibitor complex” value in the assay on Tpx [3] was determined as 21.3 ± 1.1 kDa.
`O=c1[nH]c(CCl)nc2scc(-c3ccccc3F)c12` [ortho-CFT, 2-(chloromethyl)-5-(2-fluorophenyl)thieno[2,3-d]-pyrimidin-4(3H)-one]: the “speed of Tpx inactivation” value with Tpx [1] is on record as “fastest”. Besides, at Tpx WT (750 µM analyte), the “portion of Tpx WT/inhibitor complex dimeric” value was 87%. Also, the EC50 in the assay with HEK293 cells turned out to be 5000 ± 600 nM; in assay [2] (setting [4]) it was 1000 ± 300 nM; in assay [2] (setting [5]), 800 ± 300 nM. The “Selectivity index (24 h), EC50 HEK293 cells divided by EC50 T. brucei” value in assay [2] is 5.0 ± 1.6. Besides, in the assay on Tpx [3], the “SEC-MALS Mw of Tpx/inhibitor complex” value is on record as 17.5 ± 0.9 kDa.

B1: Tryparedoxin (protein)
chain: T3 chain
modifications: meta-CFT covalently bound at C40
B1 had a Kd in the assay with Tryparedoxin of 3700 nM.

B2: Tryparedoxin (protein)
chain: T3 chain
modifications: CtFT covalently bound at C40
For B2, the Kd with Tryparedoxin turned out to be 410000 nM.

As a reminder, the EC50 is the concentration giving half of the maximal effect. As a reminder, the Kd is a measure of binding affinity in units of concentration.
